BindingDB's records for doi:10.7270/Q2TX3CTT (Broad Institute, 2010)

Target: Glycogen synthase kinase-3 beta (Homo sapiens, UniProt P49841)
Test: concentration-response blocking of human GSK3B – biochemical, luminescence, cell-free homogeneous, retest, dose response (AID 434954)

Sequence of Glycogen synthase kinase-3 beta (P49841 whole entry): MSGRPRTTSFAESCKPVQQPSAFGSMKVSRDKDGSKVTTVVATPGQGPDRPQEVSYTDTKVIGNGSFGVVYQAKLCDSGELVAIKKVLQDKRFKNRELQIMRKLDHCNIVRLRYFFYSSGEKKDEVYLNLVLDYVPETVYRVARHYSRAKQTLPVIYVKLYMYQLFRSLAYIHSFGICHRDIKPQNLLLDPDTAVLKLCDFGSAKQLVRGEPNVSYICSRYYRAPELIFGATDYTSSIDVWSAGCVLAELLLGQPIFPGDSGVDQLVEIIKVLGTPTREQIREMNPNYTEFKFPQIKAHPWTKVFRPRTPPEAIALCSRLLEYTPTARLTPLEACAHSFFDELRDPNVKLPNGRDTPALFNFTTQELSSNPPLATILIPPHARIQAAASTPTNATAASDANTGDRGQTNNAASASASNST

EC50 [µM] | SMILES
> 300 | CCOC(=O)c1ccc2ncc(C(=O)OCC)c(Nc3ccc(N4CCOCC4)cc3)c2c1 [diethyl 4-[(4-morpholin-4-ylphenyl)amino]quinoline-3,6-dicarboxylate]
3.93 | Cc1[nH]nc2c1C(c1ccc(F)cc1)C1C(=O)CC(C)(C)CC1=N2 (configuration not stated) [4-(4-fluorophenyl)-3,7,7-trimethyl-1,4,6,7,8,9-hexahydro-5H-pyrazolo[3,4-b]quinolin-5-one]
13.6 | Nc1nc(NCc2ccc(Cl)cc2)nc(NCCO)c1[N+](=O)[O-] [SMR000436738]
> 300 | CC1(C)CC(=O)C=C(Nc2cccc(C(F)(F)F)c2)C1 [5,5-dimethyl-3-[[3-(trifluoromethyl)phenyl]amino]cyclohex-2-en-1-one]
> 300 | O=NCc1ccc(OCc2ccccc2)c(Cl)c1 [3-chloro-4-phenylmethoxybenzaldehyde oxime]
30.7 | c1cncc(-c2nc(NCCCn3ccnc3)c3ccccc3n2)c1 [SMR000384722]
74.4 | Cc1ccc(S(=O)(=O)CCSc2n[nH]c(=O)n2-c2ccc3c(c2)OCCO3)cc1 [SMR000456166]
> 300 | CN1CCc2c(sc(NC(=O)Cc3ccc(F)cc3)c2C(N)=O)C1 [SMR000641824]
> 300 | COc1cccc2cc(CC(=O)c3ccc(C)cc3C)c(=O)oc12 [3-[2-(2,4-dimethylphenyl)-2-oxoethyl]-8-methoxychromen-2-one]
25.6 | Cc1ccnc(NC(=O)C2CC(=O)N(c3ccc4c(c3)OCCO4)C2)c1 (configuration not stated) [SMR000709078]
0.584 | COc1ccccc1Nc1nc(NCCC(C)C)nc(N)c1[N+](=O)[O-] [N'-(2-Methoxy-phenyl)-N-(3-methyl-butyl)-5-nitro-pyrimidine-2,4,6-triamine]
> 300 | O=C(NCCCN1CCCCC1)c1ccc2c(c1)NC(=O)C(N1CCCCC1)S2 (configuration not stated) [3-oxo-2-piperidin-1-yl-N-(3-piperidin-1-ylpropyl)-4H-1,4-benzothiazine-6-carboxamide]
> 300 | O=C(O)COc1ccc2oc3ccccc3c2c1 [SMR000243853]
> 300 | CCSc1nc(N)nc(-c2cccs2)c1C#N [2-amino-4-ethylsulfanyl-6-thiophen-2-ylpyrimidine-5-carbonitrile]
> 300 | CNc1nc(N)c(C(=O)C(C)(C)C)s1 [MLS000050680]
> 300 | COc1cccc2cc(C(=O)CS(=O)(=O)c3ccc(C)cc3)c(=O)oc12 [8-methoxy-3-[2-(4-methylphenyl)sulfonylethanoyl]chromen-2-one]
> 300 | Cc1cccc(COc2ccc(C=NNC(=O)c3nnn(-c4nonc4N)c3CN3CCCCC3)cc2)c1 [SMR000646486]
8.32 | Nc1nc(NCCCN2CCOCC2)nc(NCc2ccccc2)c1[N+](=O)[O-] [N'-Benzyl-N-(3-morpholin-4-yl-propyl)-5-nitro-pyrimidine-2,4,6-triamine]
> 300 | Fc1ccc(CNc2nc(-c3cccnc3)nc3ccccc23)cc1 [N-[(4-fluorophenyl)methyl]-2-(3-pyridinyl)-4-quinazolinamine]
71.2 | Cc1nn(-c2ccccc2)cc1CN=O
19.5 | CC(=O)N1CCc2c(sc(NC(=O)CN3C(=O)c4ccccc4C3=O)c2C(N)=O)C1 [MLS000419451]
114 | Nc1nc(Nc2cccc(F)c2)nc(NCCO)c1[N+](=O)[O-] [2-[[6-amino-2-(3-fluoroanilino)-5-nitro-4-pyrimidinyl]amino]ethanol]
1.43 | CC(C)CCNc1nc(N)c([N+](=O)[O-])c(NCC2CCCO2)n1 (configuration not stated) [SMR000220274]
> 300 | Cc1ccc(CSc2ccc(-c3cccs3)nn2)cc1 [3-[(4-methylphenyl)methylsulfanyl]-6-thiophen-2-ylpyridazine]
> 300 | CN=C(C)C(C(=O)OC)C(=O)c1ccc(Cl)cc1Cl (configuration not stated) [SMR000461254]
> 300 | CCOC(=O)c1nnn(-c2nonc2N)c1CSc1nnc(N)s1 [MLS000624994]
> 300 | Cc1ccc(SCC(=O)Nc2ccc3c(c2)C(=O)NC3=O)cc1 [N-[1,3-bis(oxidanylidene)isoindol-5-yl]-2-(4-methylphenyl)sulfanyl-ethanamide]
